Experimental data from patent US20240174985A1, “METHOD FOR PRODUCING OVARIAN SOMATIC CELL-LIKE CELLS, AND METHOD FOR INDUCING DIFFERENTIATION OF PRIMATE PLURIPOTENT STEM CELLS INTO OVARIAN SOMATIC CELL-LIKE CELLS” (Kyoto University, priority 2021, published 2024).
Where two headings read alike, the source gives them in different places.

Legend:
Format in all cases: cell-based
[1] = system: cynomolgus monkey ES cells; settings: for induction of NR5A1-positive cells: addition in step 1 (BMS493 1 μM), FACS day 14; for concentration considered the best in step 2: conclusion at the time of experiment 21
human iPS cells [2] = assay: Induction of differentiation from human iPS cells into ovarian somatic cell-like cells (FACS of OSR1-tdTomato/NR5A1-EGFP reporters, observation of embryoid bodies)
Source text: In order to conveniently observe the expression of genes typical at each developmental stage, a human iPS cell line 1390G3 was genetically modified, and a DNA sequence that emits red fluorescence (tdTomato) with the expression of the OSR1 gene, green fluorescence (EGFP) with the expression of the NR5A1 gene, and red fluorescence (tdTomato) with the expression of the FOXL2 gene was manufactured (see FIG. 1, and after introduction into the chromosome, a portion of “PGKp-Neo (or Puro)-pA” portion was deleted with Cre). An iPS cell line into which two DNA sequences of OSR1 and NR5A1 had been introduced (which may be hereinafter abbreviated as “OTNG”), and an iPS cell line into which two DNA sequences of NR5A1 and FOXL2 had been introduced (which may be hereinafter abbreviated as “NGFT”) were manufactured. In the present test, the OTNG strain was used in most of the experiments. Furthermore, NR5A1 and SF1 are the same gene.
(§1) The cells at each stage were analyzed using a flow cytometer (BD FACSAria III).
The ES cells of monkeys and human iPS cells are considered to be similar to EpiLC in a slightly advanced state in terms of differentiation, as compared with mouse ES cells. Therefore, in the examination using monkey or human pluripotent stem cells in the present test, step 0 was omitted and the process was started from step 1. […] For this reason, Y27632 was added to step 1 to perform examination. In addition, a 96-well V-bottom plate was used as a culture plate and the cells were seeded so as to have 10,000 cells per well.
In a test using human cells, the base medium was changed from GMEM (used in mice) to DMEM including 7.5 v/v % KnockOut (registered trademark) Serum Replacement (KSR). In addition, the base medium includes 0.1 mM 2-mercaptoethanol, 100 U/mL penicillin/streptomycin, and 2 mM GlutaMax (registered trademark), but the additives and concentrations thereof are fixed, and the description following “2.” is omitted. The periods of step 1 and step 2 were set to be the same as those in the mouse protocol, and culture was continued under the condition of step 3. The entire medium was basically changed every two or three days. At the time of subculturing iPS cells, 30,000 cells were seeded on a low-adhesive plate to start the culture as aggregates.

[3] = system: cynomolgus monkey ES cells
Source text: In order to conveniently observe the expression of genes represented by each developmental stage, the stop codons of TBXT, OSR1, NR5A1, FOXL2, WT1, and GATA4 were deleted from the cynomolgus monkey female ES15XRi cell strain using a Cas9 nickase and gene targeting, 2A and EGFP (TBXT, NR5A1), tdTomato (OSR1, FOXL2, and WT1), and 2A and mTagBFP2 (GATA4) were inserted, and then a drug-resistant cassette sandwiched between loxP's was knocked in (FIGS. 24A to 24F; and in FIG. 24A to FIG. 24F, “PGK” represents a PGK promoter). Thereafter, the drug-resistant cassette was removed using Cre to manufacture the following five double reporter cell strains. • (1) TBXT-EGFP/OSR1-tdTomato (which may be hereinafter abbreviated as a “TGOT strain”); • (2) NR5A1-EGFP/FOXL2-tdTomato (which may be hereinafter abbreviated as a “NGFT strain”); • (3) a single reporter strain of NR5A1-EGFP (which may be hereinafter abbreviated as an “NG-Puro strain”. This strain has not been subjected to the removal of the drug-resistant cassette by Cre); • (4) a triple reporter strain of WT1-tdTomato/GATA4-mTagBFP2/NR5A1-EGFP (which may be hereinafter abbreviated to as a “WTGBNG strain”); and • (5) WT1-tdTomato/NR5A1-EGFP (which may be hereinafter abbreviated as a “WTNG strain”).
as §1
At the time of induction, the ES cells were cultured on mouse embryonic fibroblasts (MEF), which are feeder cells, treated with a proteolytic enzyme solution (CTK: collagenase, trypsin, and KSR), and then dissociated up to a single-cell level using TrypLEselect. Next, each of 30,000 cells was seeded in a low-adhesive 96-well U-bottom culture plate (hereinafter, step 1 was started by the same method unless otherwise specified). A TGOT No. 25 strain was used as a cell strain. The presence or absence of the ROCK inhibitor (Y-27632) in step 1 was examined. In FIG. 25A, the base medium GK7.5 has a composition of GMEM, 7.5 v/v % KSR, 0.1 mM 2-ME, 0.1 mM non-essential amino acid (NEAA), 1 mM sodium pyruvate, 100 U/mL penicillin/streptomycin, and 2 mM L-glutamine. The induction was performed for a period in step 1 of 2 days and in step 2 of 2 days. In step 2, PD173074 was used instead of PD0325901 used in mice. PD173074 is an inhibitor of FGF, whereas PD0325901 is an MEK inhibitor downstream of the FGF signaling pathway.

[4] = system: cynomolgus monkey ES cells; assay: Quantitative PCR of marker genes in cells induced from cynomolgus monkey ES cells; settings: without BMP4 and with the addition of LDN in step 1
Description: The relative expression level of each marker gene was confirmed using a PCR apparatus (BIO-RAD CFX384 Real-Time System) with the following primers and conditions. In the table, the primers of PAX3, OSR1, PAX2 #3, EMX2 #1, WT1 #2, and LHX9 #2 were used only in the experiment of FIG. 31C, and the primers of OSR1 #10, CXCL12×4, BMP2, and BMP4 were used only for the experiment in FIG. 57C. The GAPDH gene and the PPIA gene were measured as housekeeping genes, and relative values with the average of Ct values of the two genes as a control value are shown in the graph. Although not shown in the graph, ERCC-00096, ERCC-00009, ERCC-00022, and ERCC-00025 were used in combination as a control, except for the experiment of FIG. 31C.

human iPS cells [5] = assay: Quantitative PCR of marker genes in cells induced from human iPS cells; settings: bFGF 5 ng/ml added in step 1; day 15 of induction
Source text: The relative expression level of each marker gene was confirmed using a PCR apparatus (BIO-RAD CFX384 Real-Time System) with the following primers and conditions. In the tables, the PPIA gene and the RPLP0 gene were used as housekeeping genes. The difference in qPCR is a difference from the average value taken as “(PPIA+RPLP0)/2”. In addition, the ERCC gene was used as an absolute control between samples.

[6] = concentration of LDN increased in step 1 (30, 100, 1,000 nM)
[7] = added to each condition in step 3 (16 patterns), day 16
[8] = one cytokine added with EGF in step 3, compared with no cytokine control (CK−), BMP4 1 ng/ml, SHH 30 ng/mL, PD0325901 1 μM, RA 3 μM, day 16
[9] = one cytokine added with EGF in step 3, compared with no cytokine control (CK−), day 16

Molecule: CC1(C)CC=C(C#Cc2ccccc2)c2cc(/C=C/c3ccc(C(=O)O)cc3)ccc21 [BMS493]
- OSR1 expression in step 2 ([1]; 1 μM in step 1, FACS days 2, 4, 6): enhancement
- expression level of SF1-EGFP ([1]; BMS493 1 μM added in step 3): slightly increased
- induction efficiency of SF1-positive cells ([1]; BMS493 1 μM added in step 3): poor
- expression level of WT1 ([1]; BMS493 1 μM for 48 hours in step 3, WTGBNG No. 1 strain): slightly decreased
- induction of NR5A1-positive cells [1]: no particular advantage

Molecule: Cc1c[nH]c(-c2cnc(NCCNc3ccc(C#N)cn3)nc2-c2ccc(Cl)cc2Cl)n1 [CHIR99021]
- proportion of NR5A1-positive cells (human iPS cells [2]; CHIR99021 15 μM as compared to 10 μM in step 1): excellent
- NR5A1-positive cells ([1]; CHIR 20 μM in step 1, culture until day 17, NGFT No. 69 strain): a number of NR5A1-positive cells were observed
- concentration of CHIR99021 at which OSR1 can be expressed with high efficiency ([1]; step 1, at a transition to step 2, FACS days 4 and 6): ≥ 14 µM
- expression of OSR1 ([3]; CHIR 10 μM in step 1, regardless of the concentration of BMP4): confirmed
- optimum concentration of CHIR for induction of the intermediate mesoderm ([3]; step 1): ≥ 10 µM
- concentration of CHIR99021 at which TBXT can be expressed with high efficiency ([3]; step 1 of 2 days, FACS day 2, TGOT No. 25 strain): ≥ 8 µM

Molecule: c1ccc2c(-c3cnn4cc(-c5ccc(N6CCNCC6)cc5)cnc34)ccnc2c1 [LDN193189]
- induction of NR5A1-positive cells [1]: no particular advantage
- improvement in the proportion of NR5A1-positive cells ([1]; addition of LDN in step 1 (30, 100, 1,000 nM), days 14, 17, 21): almost no improvement
- OSR1 expression at the end point of step 1 (day 2.2) [1, 6]: decreased
- increase in OSR1 expression in step 2 (days 4 and 6) [1, 6]: became weaker
- expression of FOXF1 [4]: almost disappeared

Molecule: O=C(NOC[C@H](O)CO)c1ccc(F)c(F)c1Nc1ccc(I)cc1F [PD0325901]
- NR5A1-positive cells (human iPS cells [2]; PD0325901 not added in step 2, day 15 of induction): not observed at all
- NR5A1-positive cells (human iPS cells [2]; PD0325901 weak in step 2 (0.4-1.0 μM tested), day 15): did not appear
- PD0325901 concentration with the highest differentiation induction efficiency (human iPS cells [2]; step 2, KSR 7 v/v %, day 15): 1.0 µM
- optimum concentration of PD0325901 in step 2 ([1]; FACS day 16, NGFT No. 69 strain): 1 µM
- induction efficiency ([1]; MEK downstream of FGF inhibited with PD0325901 1 μM in step 3, FACS day 16): higher
- number of the induced cells ([1]; PD03 added in step 3, WTGBNG No. 1): reduced
- induction efficiency [1, 7]: improved
- number of induced cells [1, 7]: decreased
- induction efficiency ([1]; addition of PD0325901 in step 3, without addition of SHH, WTGBNG No. 1): the highest
- concentration considered the best in step 2 [1]: 1 µM
- optimum addition period of PD03 in step 3 ([1]; none, 48 hours, 96 hours tested, NG-Puro strain): 48 h
- induction efficiency [1, 8]: further increased
- number of induced cells [1, 9]: decreased
- size (embryoid bodies) at the end of step 2 ([1]; step 2: PD0325901 3, 1, 0.3, 0 μM or FGF9 20 ng/ml, day 6): improved as the amount of PD0325901 was reduced

Molecule: CC1=C(/C=C/C(C)=C/C=C/C(C)=C/C(=O)O)C(C)(C)CCC1 [RA, retinoic acid]
- concentration of RA in step 2 at which induction efficiency for NR5A1-positive cells was particularly excellent ([1]; 0, 0.3, 1, 3, 10 μM tested, FACS day 16): ≥ 3 µM
- concentration considered the best in step 2 [1]: 3 µM

Molecule: CNC1CCC(N(Cc2cccc(-c3ccncc3)c2)C(=O)c2sc3ccccc3c2Cl)CC1 (stereo not shown) [SAG]
- replacement of SHH in step 2 ([1]; SAG 100 nM, FACS day 16): SHH can be replaced with SAG

Molecule: C[C@@H](N)[C@H]1CC[C@H](C(=O)Nc2ccncc2)CC1 [Y-27632]
- efficiency of forming cell aggregates (embryoid bodies) ([3]; without Y-27632 in step 1, day 2 of induction, TGOT No. 25 strain): significantly low

Molecule: BMP4: bone morphogenetic protein 4
- embryoid bodies (size; concern about cytotoxicity) [1]: the same tendency was recognized
- best concentration in step 2 (induction efficiency) ([1]; BMP4 0, 1, 5, 10 and SHH 0, 30, 60, 100 ng/ml tested, FACS day 16): 1 ng/mL
- concentration in step 3 that most induced NR5A1-positive cells ([1]; BMP4 0, 1, 20, 50 and FGF9 0, 2, 10, 20 ng/ml tested, FACS day 16): 1 ng/mL
- induction efficiency ([1]; BMP4 not added after step 2 (four-step method), FACS day 16): higher
- number of induced cells [1, 7]: decreased only in a case where BMP4 was added to EGF+RA (ER+B)
- expression of OSR1 ([1]; by the amount of BMP4 added in step 1 (1, 3, 10 ng/ml), CHIR 10 μM): increase
- concentration considered the best in step 2 [1]: 1 ng/mL
- induction efficiency [1, 8]: reduced
- number of induced cells [1, 9]: large
- concentration in step 1 at which number and proportion of the positive cells were maximal ([1]; periods 3-3-10 (days), day 16): 0 ng/mL
- expression of OSR1 ([3]; increasing the amount of BMP in step 1, CHIR99021 14 μM or more): enhanced

Molecule: EGF: epidermal growth factor
- concentration considered the best in step 2 [1]: 50 ng/mL
- necessity for induction ([1]; no addition of EGF in step 1 and step 2, FACS day 16, NGFT No. 69): not essential

Molecule: bFGF: basic fibroblast growth factor (FGF2)
- states of the embryoid bodies (human iPS cells [2]; added between day 2 and day 4 of induction, step 1 plane culture): poor (dead)
- differentiation induction efficiency (human iPS cells [2]; bFGF not present in step 1 (versus added)): higher
- expression of the marker gene of posteriorization (human iPS cells [5]): not recognized
- expression of OSR1 ([1]; added in step 1: bFGF 50 ng/mL entire period, Activin A 10 ng/ml one day from day 1, FACS days 2, 4, 6): acted toward enhancing the expression of OSR1
- NR5A1-positive cells ([1]; addition of bFGF in step 1, periods 2-2-12 (days), day 16): no significant change
- NR5A1-positive cell induction efficiency ([1]; addition of bFGF in step 1, periods 3-3-10 (days), day 16): remarkable improvement
- improvement of the induction of NR5A1-positive cells ([1]; bFGF 50 ng/ml and Activin A 10 ng/ml (only from day 1) in step 1, days 14 and 21): not recognized
- concentration in step 1 at which number and proportion of the positive cells were maximal ([1]; periods 3-3-10 (days), day 16): 5 ng/mL
